molecular target: human sodium ion channel 1.7 (hNav1.7) (Homo sapiens, UniProt Q15858); test: Blocking effect against sodium ion channel Nav1.7, IonFlux16 auto patch clamp in hNav1.7 HEK293 cells; type: cell-based; details: not given
Sequence (Q15858 whole entry): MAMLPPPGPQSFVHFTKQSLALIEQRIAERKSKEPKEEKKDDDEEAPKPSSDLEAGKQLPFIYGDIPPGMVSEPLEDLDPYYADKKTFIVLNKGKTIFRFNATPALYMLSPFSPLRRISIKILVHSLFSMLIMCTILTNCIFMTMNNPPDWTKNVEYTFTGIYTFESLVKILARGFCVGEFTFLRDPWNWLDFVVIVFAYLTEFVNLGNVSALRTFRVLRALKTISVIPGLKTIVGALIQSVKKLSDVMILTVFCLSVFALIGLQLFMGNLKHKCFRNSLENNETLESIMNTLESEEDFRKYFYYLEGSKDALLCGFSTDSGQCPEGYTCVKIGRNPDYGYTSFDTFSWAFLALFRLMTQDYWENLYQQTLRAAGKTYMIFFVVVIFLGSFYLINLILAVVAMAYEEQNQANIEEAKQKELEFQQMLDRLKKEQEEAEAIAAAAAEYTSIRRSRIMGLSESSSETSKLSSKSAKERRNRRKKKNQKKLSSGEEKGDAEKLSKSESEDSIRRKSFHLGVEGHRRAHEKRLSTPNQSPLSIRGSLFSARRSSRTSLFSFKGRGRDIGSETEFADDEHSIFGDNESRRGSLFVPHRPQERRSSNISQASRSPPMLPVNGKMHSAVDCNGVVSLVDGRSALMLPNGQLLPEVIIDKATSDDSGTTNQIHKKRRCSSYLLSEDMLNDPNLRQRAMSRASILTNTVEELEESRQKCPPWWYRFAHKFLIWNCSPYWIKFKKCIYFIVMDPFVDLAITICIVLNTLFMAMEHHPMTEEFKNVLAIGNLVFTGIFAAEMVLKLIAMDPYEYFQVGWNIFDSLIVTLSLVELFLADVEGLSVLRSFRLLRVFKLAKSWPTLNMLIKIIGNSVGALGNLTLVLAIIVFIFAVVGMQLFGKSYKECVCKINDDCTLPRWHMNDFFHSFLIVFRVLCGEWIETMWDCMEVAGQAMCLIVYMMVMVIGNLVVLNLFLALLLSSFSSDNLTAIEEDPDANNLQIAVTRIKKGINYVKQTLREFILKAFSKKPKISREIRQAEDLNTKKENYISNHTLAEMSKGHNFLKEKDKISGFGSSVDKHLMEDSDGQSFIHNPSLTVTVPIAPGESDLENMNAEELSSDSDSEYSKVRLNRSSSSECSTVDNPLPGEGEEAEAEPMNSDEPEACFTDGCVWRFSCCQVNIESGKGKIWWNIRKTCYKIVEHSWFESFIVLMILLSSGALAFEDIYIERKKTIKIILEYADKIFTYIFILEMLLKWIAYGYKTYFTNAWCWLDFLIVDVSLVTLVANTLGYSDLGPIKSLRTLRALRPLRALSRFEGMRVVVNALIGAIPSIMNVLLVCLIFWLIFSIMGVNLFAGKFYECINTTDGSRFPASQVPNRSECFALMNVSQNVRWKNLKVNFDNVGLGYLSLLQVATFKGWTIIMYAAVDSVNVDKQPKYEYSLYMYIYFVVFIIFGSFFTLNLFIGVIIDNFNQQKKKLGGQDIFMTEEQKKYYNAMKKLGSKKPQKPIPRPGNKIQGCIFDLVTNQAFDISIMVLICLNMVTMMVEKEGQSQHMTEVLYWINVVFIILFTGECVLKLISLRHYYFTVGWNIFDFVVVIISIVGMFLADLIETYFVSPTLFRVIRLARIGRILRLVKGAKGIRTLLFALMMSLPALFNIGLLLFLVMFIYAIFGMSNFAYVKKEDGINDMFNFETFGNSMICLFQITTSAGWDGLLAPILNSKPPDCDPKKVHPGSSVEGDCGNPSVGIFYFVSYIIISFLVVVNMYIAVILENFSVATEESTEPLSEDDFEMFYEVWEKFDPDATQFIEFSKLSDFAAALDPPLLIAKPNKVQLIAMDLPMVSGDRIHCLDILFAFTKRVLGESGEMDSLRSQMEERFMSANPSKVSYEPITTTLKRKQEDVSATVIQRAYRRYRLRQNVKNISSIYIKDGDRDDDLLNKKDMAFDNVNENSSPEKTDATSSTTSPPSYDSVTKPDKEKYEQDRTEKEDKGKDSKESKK

Row | Structure (SMILES) | IC50
1 | CS(=O)(=O)NC(=O)c1cc(Cl)c(-n2cc(-c3ccc(C(F)(F)F)cc3)c3cc(Cl)cnc32)cc1F [Example 188, 5-chloro-4-(5-chloro-3-(4-(trifluoromethyl)phenyl)-1H-pyrrolo[2,3-b]pyridin-1-yl)-2-fluoro-N-(methylsulfonyl)benzamide] | 50 nM
2 | CS(=O)(=O)NC(=O)c1cc(Cl)c(-n2cc(-c3cccc(Cl)c3F)c3cc(F)cnc32)cc1F [Example 211, 5-chloro-4-(3-(3-chloro-2-fluorophenyl)-5-fluoro-1H-pyrrolo[2,3-b]pyridin-1-yl)-2-fluoro-N-(methylsulfonyl)benzamide] | 40 nM

same assay, conditions: hNav1.7 HEK293 cells; inhibition of peak current after 50 seconds treatment; eight concentrations; read-out: IC50

Row | Structure (SMILES) | IC50
3 | CS(=O)(=O)NC(=O)c1cc(Cl)c(-n2nc(-c3ccc(C(F)(F)F)cc3)c3ccccc32)cc1F [Example 178, 5-chloro-2-fluoro-N-(methylsulfonyl)-4-(3-(4-(trifluoromethyl)phenyl)-1H-indazol-1-yl)benzamide] | 330 nM
4 | CS(=O)(=O)NC(=O)c1cc(Cl)c(-n2nc(-c3ccc(F)cc3)c3ccccc32)cc1F [Example 179, 5-chloro-2-fluoro-4-(3-(4-fluorophenyl)-1H-indazol-1-yl)-N-(methylsulfonyl)benzamide] | 390 nM
5 | CS(=O)(=O)NC(=O)c1cc(Cl)c(-n2nc(-c3cccnc3)c3ccccc32)cc1F [Example 180, 5-chloro-2-fluoro-N-(methylsulfonyl)-4-(3-(pyridin-3-yl)-1H-indazol-1-yl)benzamide] | > 10000 nM
6 | CS(=O)(=O)NC(=O)c1cc(Cl)c(-n2nc(-c3cccc(C#N)c3)c3ccccc32)cc1F [Example 181, 5-chloro-4-(3-(3-cyanophenyl)-1H-indazol-1-yl)-2-fluoro-N-(methylsulfonyl)benzamide] | 837 nM
7 | CS(=O)(=O)NC(=O)c1ccc(-n2nc(-c3cccc(C#N)c3)c3ccccc32)c(C#N)c1 [Example 183, 3-cyano-4-(3-(3-cyanophenyl)-1H-indazol-1-yl)-N-(methylsulfonyl)benzamide] | > 10000 nM
8 | CS(=O)(=O)NC(=O)c1cc(Cl)c(-n2nc(-c3ccc(Cl)cc3F)c3ccccc32)cc1F [Example 184, 5-chloro-4-(3-(4-chloro-2-fluorophenyl)-1H-indazol-1-yl)-2-fluoro-N-(methylsulfonyl)benzamide] | 70 nM
9 | CS(=O)(=O)NC(=O)c1cc(Cl)c(-n2cc(-c3ccc(F)cc3)c3cc(Cl)cnc32)cc1F [Example 185, 5-chloro-4-(5-chloro-3-(4-fluorophenyl)-1H-pyrrolo[2,3-b]pyridin-1-yl)-2-fluoro-N-(methylsulfonyl)benzamide] | 80 nM
10 | CS(=O)(=O)NC(=O)c1cc(Cl)c(-n2cc(-c3ccc(F)cc3F)c3cc(Cl)cnc32)cc1F [Example 186, 5-chloro-4-(5-chloro-3-(2,4-difluorophenyl)-1H-pyrrolo[2,3-b]pyridin-1-yl)-2-fluoro-N-(methylsulfonyl)benzamide] | 80 nM
11 | CS(=O)(=O)NC(=O)c1cc(Cl)c(-n2cc(-c3ccc(C#N)cc3)c3cc(Cl)cnc32)cc1F [Example 187, 5-chloro-4-(5-chloro-3-(4-cyanophenyl)-1H-pyrrolo[2,3-b]pyridin-1-yl)-2-fluoro-N-(methylsulfonyl)benzamide] | 620 nM
12 | CS(=O)(=O)NC(=O)c1cc(Cl)c(-n2cc(-c3ccc(Cl)cc3F)c3cc(Cl)cnc32)cc1F [Example 189, 5-chloro-4-(5-chloro-3-(4-chloro-2-fluorophenyl)-1H-pyrrolo[2,3-b]pyridin-1-yl)-2-fluoro-N-(methylsulfonyl)benzamide] | 110 nM
13 | CS(=O)(=O)NC(=O)c1cc(Cl)c(-n2cc(-c3cccc(F)c3)c3cc(Cl)cnc32)cc1F [Example 190, 5-chloro-4-(5-chloro-3-(3-fluorophenyl)-1H-pyrrolo[2,3-b]pyridin-1-yl)-2-fluoro-N-(methylsulfonyl)benzamide] | 170 nM
14 | CS(=O)(=O)NC(=O)c1cc(Cl)c(-n2cc(-c3ccccc3F)c3cc(Cl)cnc32)cc1F [Example 191, 5-chloro-4-(5-chloro-3-(2-fluorophenyl)-1H-pyrrolo[2,3-b]pyridin-1-yl)-2-fluoro-N-(methylsulfonyl)benzamide] | 110 nM
15 | CS(=O)(=O)NC(=O)c1cc(Cl)c(-n2cc(-c3cccc(C(F)(F)F)c3)c3cc(Cl)cnc32)cc1F [Example 192, 5-chloro-4-(5-chloro-3-(3-(trifluoromethyl)phenyl)-1H-pyrrolo[2,3-b]pyridin-1-yl)-2-fluoro-N-(methylsulfonyl)benzamide] | 270 nM
16 | CS(=O)(=O)NC(=O)c1cc(Cl)c(-n2cc(-c3ccccc3C(F)(F)F)c3cc(Cl)cnc32)cc1F [Example 193, 5-chloro-4-(5-chloro-3-(2-(trifluoromethyl)phenyl)-1H-pyrrolo[2,3-b]pyridin-1-yl)-2-fluoro-N-(methylsulfonyl)benzamide] | 100 nM
17 | CS(=O)(=O)NC(=O)c1cc(Cl)c(-n2cc(-c3cccc(C#N)c3)c3cc(Cl)cnc32)cc1F [Example 194, 5-chloro-4-(5-chloro-3-(3-cyanophenyl)-1H-pyrrolo[2,3-b]pyridin-1-yl)-2-fluoro-N-(methylsulfonyl)benzamide] | 480 nM
18 | CS(=O)(=O)NC(=O)c1cc(Cl)c(-n2cc(-c3ccc(Cl)cc3)c3cc(Cl)cnc32)cc1F [Example 195, 5-chloro-4-(5-chloro-3-(4-chlorophenyl)-1H-pyrrolo[2,3-b]pyridin-1-yl)-2-fluoro-N-(methylsulfonyl)benzamide] | 80 nM

Row | Structure (SMILES) | IC50
19 | COc1ccc(-c2cn(-c3cc(F)c(C(=O)NS(C)(=O)=O)cc3Cl)c3ncc(Cl)cc23)cc1 [Example 196, 5-chloro-4-(5-chloro-3-(4-methoxyphenyl)-1H-pyrrolo[2,3-b]pyridin-1-yl)-2-fluoro-N-(methylsulfonyl)benzamide] | 130 nM
20 | CS(=O)(=O)NC(=O)c1cc(Cl)c(-n2cc(-c3ccc(F)cc3Cl)c3cc(Cl)cnc32)cc1F [Example 197, 5-chloro-4-(5-chloro-3-(2-chloro-4-fluorophenyl)-1H-pyrrolo[2,3-b]pyridin-1-yl)-2-fluoro-N-(methylsulfonyl)benzamide] | 40 nM
21 | CS(=O)(=O)NC(=O)c1cc(Cl)c(-n2cc(-c3ccccc3Cl)c3cc(Cl)cnc32)cc1F [Example 198, 5-chloro-4-(5-chloro-3-(2-chlorophenyl)-1H-pyrrolo[2,3-b]pyridin-1-yl)-2-fluoro-N-(methylsulfonyl)benzamide] | 170 nM
22 | COc1cc(F)ccc1-c1cn(-c2cc(F)c(C(=O)NS(C)(=O)=O)cc2Cl)c2ncc(Cl)cc12 [Example 199, 5-chloro-4-(5-chloro-3-(4-fluoro-2-methoxyphenyl)-1H-pyrrolo[2,3-b]pyridin-1-yl)-2-fluoro-N-(methylsulfonyl)benzamide] | 200 nM
23 | Cc1cc(F)ccc1-c1cn(-c2cc(F)c(C(=O)NS(C)(=O)=O)cc2Cl)c2ncc(Cl)cc12 [Example 200, 5-chloro-4-(5-chloro-3-(4-fluoro-2-methylphenyl)-1H-pyrrolo[2,3-b]pyridin-1-yl)-2-fluoro-N-(methylsulfonyl)benzamide] | 90 nM
24 | CS(=O)(=O)NC(=O)c1cc(Cl)c(-n2cc(-c3ccc(Cl)cc3F)c3cc(F)cnc32)cc1F [Example 201, 5-chloro-4-(3-(4-chloro-2-fluorophenyl)-5-fluoro-1H-pyrrolo[2,3-b]pyridin-1-yl)-2-fluoro-N-(methylsulfonyl)benzamide] | 70 nM
25 | CS(=O)(=O)NC(=O)c1cc(Cl)c(-n2cc(-c3ccc(F)cc3Cl)c3cc(F)cnc32)cc1F [Example 202, 5-chloro-4-(3-(2-chloro-4-fluorophenyl)-5-fluoro-1H-pyrrolo[2,3-b]pyridin-1-yl)-2-fluoro-N-(methylsulfonyl)benzamide] | 50 nM
26 | CS(=O)(=O)NC(=O)c1cc(Cl)c(-n2cc(-c3ccc(F)cc3F)c3cc(F)cnc32)cc1F [Example 203, 5-chloro-4-(3-(2,4-difluorophenyl)-5-fluoro-1H-pyrrolo[2,3-b]pyridin-1-yl)-2-fluoro-N-(methylsulfonyl)benzamide] | 80 nM
27 | CS(=O)(=O)NC(=O)c1cc(Cl)c(-n2cc(-c3ccc(Cl)cc3)c3cc(F)cnc32)cc1F [Example 204, 5-chloro-4-(3-(4-chlorophenyl)-5-fluoro-1H-pyrrolo[2,3-b]pyridin-1-yl)-2-fluoro-N-(methylsulfonyl)benzamide] | 100 nM
28 | CS(=O)(=O)NC(=O)c1cc(Cl)c(-n2cc(-c3ccc(C(F)(F)F)cc3)c3cc(F)cnc32)cc1F [Example 205, 5-chloro-2-fluoro-4-(5-fluoro-3-(4-(trifluoromethyl)phenyl)-1H-pyrrolo[2,3-b]pyridin-1-yl)-N-(methylsulfonyl)benzamide] | 50 nM
29 | CS(=O)(=O)NC(=O)c1cc(Cl)c(-n2cc(-c3ccc(F)cc3)c3cc(F)cnc32)cc1F [Example 206, 5-chloro-2-fluoro-4-(5-fluoro-3-(4-fluorophenyl)-1H-pyrrolo[2,3-b]pyridin-1-yl)-N-(methylsulfonyl)benzamide] | 210 nM
30 | CS(=O)(=O)NC(=O)c1cc(Cl)c(-n2cc(-c3ccccc3Cl)c3cc(F)cnc32)cc1F [Example 207, 5-chloro-4-(3-(2-chlorophenyl)-5-fluoro-1H-pyrrolo[2,3-b]pyridin-1-yl)-2-fluoro-N-(methylsulfonyl)benzamide] | 140 nM
31 | CS(=O)(=O)NC(=O)c1cc(Cl)c(-n2cc(-c3cccc(Cl)c3)c3cc(F)cnc32)cc1F [Example 208, 5-chloro-4-(3-(3-chlorophenyl)-5-fluoro-1H-pyrrolo[2,3-b]pyridin-1-yl)-2-fluoro-N-(methylsulfonyl)benzamide] | 50 nM
32 | CS(=O)(=O)NC(=O)c1cc(Cl)c(-n2cc(-c3ccc(Cl)cc3Cl)c3cc(F)cnc32)cc1F [Example 209, 5-chloro-4-(3-(2,4-dichlorophenyl)-5-fluoro-1H-pyrrolo[2,3-b]pyridin-1-yl)-2-fluoro-N-(methylsulfonyl)benzamide] | 40 nM
33 | CS(=O)(=O)NC(=O)c1cc(Cl)c(-n2cc(-c3ccc(Cl)c(F)c3)c3cc(F)cnc32)cc1F [Example 210, 5-chloro-4-(3-(4-chloro-3-fluorophenyl)-5-fluoro-1H-pyrrolo[2,3-b]pyridin-1-yl)-2-fluoro-N-(methylsulfonyl)benzamide] | 60 nM

Reference: patent US10590078B2, “Sodium channel blockers” (Daewoong Pharmaceutical Co., Ltd., priority 2015, dated 2020)
